Experimental data published in US20130225427A1, “METHOD FOR PREDICTION OF RESPONSE TO IMMUNE MEDIATED DISEASE THERAPEUTICS” (SANFORD-BURNHAM MEDICAL RESEARCH INSTITUTE, priority 2010, published 2013).

Experiments:
Assay type in all cases: in vivo, human
APC = assay: Taqman gene expression in APC from PBMC of treated RA clinical responders; settings: compared to initiation of the treatment
From the text: (§1) The aim of this study is to identify clusters of immune pathways characteristic of responsiveness that are specific to treatment. […] We show as summary a color coded table. We clustered individual immune functions according to cut off values identified in preliminary studies (25% change compared with baseline at active disease). The Table 1 depicts the differences for patients who are all responders and therefore otherwise clinically indistinguishable ([…]).
(§2) PBMCs from each patient were incubated for 48 hours with plate bound anti-CD3/CD28. Non-adherent cells were collected to enrich T cells by pan T-cell MACS. T cells were FACS sorted on CD4+CD127+ (TE) and CD4+CD25+CD127− (nTreg), and CD4+CD25+PD1+CD127− (PD1+ Treg). Aliquots of all sorted cells were collected for TaqMan. The remainder of the APCs and TE were cultured with isolated Treg. CFSE was added to the TE cells and cultured for a total of 4 days with anti-CD3/CD28.

nTreg = assay: Taqman gene expression in sorted CD4+CD25+CD127− nTreg of treated RA clinical responders; settings: compared to initiation of the treatment
From the text: as §1, §2

Te Cells = assay: Taqman gene expression in sorted CD4+CD127+ effector T cells (TE) of treated RA clinical responders; settings: compared to initiation of the treatment
From the text: as §1, §2

PD1 + Treg = assay: Taqman gene expression in sorted CD4+CD25+PD1+CD127− PD1+ Treg of treated RA clinical responders; settings: compared to initiation of the treatment
Procedure: The aim of this study is to identify clusters of immune pathways characteristic of responsiveness that are specific to treatment. […] We clustered individual immune functions according to cut off values identified in preliminary studies (25% change compared with baseline at active disease).
as §2

Treg = assay: Suppression activity of Treg on CFSE-labelled TE proliferation; settings: when clinical response is seen (FIG. 3)
Procedure: as §2

## CN(Cc1cnc2nc(N)nc(N)c2n1)c1ccc(C(=O)N[C@@H](CCC(=O)O)C(=O)O)cc1 [MTX, methotrexate]
APC
  B7-H1 up or down regulated: up regulated (cut off values identified in preliminary studies (25% change compared with baseline at active disease))
  B7-H2 up or down regulated: up regulated (cut off values identified in preliminary studies (25% change compared with baseline at active disease))
  B7-H4 up or down regulated: up regulated (cut off values identified in preliminary studies (25% change compared with baseline at active disease))
  FAS-L up or down regulated: up regulated (cut off values identified in preliminary studies (25% change compared with baseline at active disease))
  IL-10 up or down regulated: up regulated (cut off values identified in preliminary studies (25% change compared with baseline at active disease))
  INFγ up or down regulated: up regulated (cut off values identified in preliminary studies (25% change compared with baseline at active disease))
  TGFβ up or down regulated: up regulated (cut off values identified in preliminary studies (25% change compared with baseline at active disease))
  percent change in expression of B7-H1: +106.4%
  percent change in expression of B7-H2: +98.4%
  percent change in expression of B7-H4: +118.6%
  percent change in expression of FAS-L: +83.1%
  percent change in expression of IL-10: +28.6%
  percent change in expression of INFγ: +219.9%
  percent change in expression of TGFβ: +31.1%
nTreg
  CTLA4 up or down regulated: up regulated (cut off values identified in preliminary studies (25% change compared with baseline at active disease))
  FoxP3 up or down regulated: up regulated (cut off values identified in preliminary studies (25% change compared with baseline at active disease))
  Granzyme B up or down regulated: up regulated (cut off values identified in preliminary studies (25% change compared with baseline at active disease))
  INFγ up or down regulated: up regulated (cut off values identified in preliminary studies (25% change compared with baseline at active disease))
  PD1 up or down regulated: up regulated (cut off values identified in preliminary studies (25% change compared with baseline at active disease))
  TGFβ up or down regulated: up regulated (cut off values identified in preliminary studies (25% change compared with baseline at active disease))
  percent change in expression of CTLA4: +684.0%
  percent change in expression of FoxP3: 439.0%
  percent change in expression of Granzyme B: +393.7%
  percent change in expression of INFγ: +99.6%
  percent change in expression of PD1: +474.2%
  percent change in expression of TGFβ: +69.3%
Te Cells
  IL-10 up or down regulated: no change (cut off values identified in preliminary studies (25% change compared with baseline at active disease))
  IL-17A up or down regulated: no change (cut off values identified in preliminary studies (25% change compared with baseline at active disease))
  TGFβ up or down regulated: up regulated (cut off values identified in preliminary studies (25% change compared with baseline at active disease))
  percent change in expression of FAS-L: 20.5%
  percent change in expression of GATA-3: −21.6%
  percent change in expression of ICOS: −7.2%
  percent change in expression of IL-10: +15.2%
  percent change in expression of IL-17A: +0.3%
  percent change in expression of INFγ: +1.7%
  percent change in expression of PD-1: +5.6%
  percent change in expression of TGFβ: +150.8%
  percent change in expression of TNFα: 2.3%
  percent change in expression of Tbet: −17.1%
PD1 + Treg
  CTLA4 up or down regulated: up regulated (cut off values identified in preliminary studies (25% change compared with baseline at active disease))
  FoxP3 up or down regulated: up regulated (cut off values identified in preliminary studies (25% change compared with baseline at active disease))
  Granzyme B up or down regulated: up regulated (cut off values identified in preliminary studies (25% change compared with baseline at active disease))
  IL-10 up or down regulated: up regulated (cut off values identified in preliminary studies (25% change compared with baseline at active disease))
  INFγ up or down regulated: up regulated (cut off values identified in preliminary studies (25% change compared with baseline at active disease))
  PD1 up or down regulated: up regulated (cut off values identified in preliminary studies (25% change compared with baseline at active disease))
  Perforin up or down regulated: up regulated (cut off values identified in preliminary studies (25% change compared with baseline at active disease))
  TGFβ up or down regulated: up regulated (cut off values identified in preliminary studies (25% change compared with baseline at active disease))
  percent change in expression of FoxP3: +124.1%
  percent change in expression of Granzyme B: +213.8%
  percent change in expression of IL-10: 168.8%
  percent change in expression of INFγ: +355.0%
  percent change in expression of PD1: 290.3%
  percent change in expression of Perforin: +288.7%
  percent change in expression of TGFβ: +254.4%
Treg
  suppressive capability of Treg to suppress effector proliferation: enhanced
